The source of these data is patent publication US5817669A, “Compounds, processes for the preparation thereof and anti-tumor agents” (Dainippon Pharmaceutical Co., Ltd., priority 1994, dated 1998).

Read-outs that look alike come from different tables or passages of the source.

In one series the test system is tumor. Conditions: Cancer Research 52, 2818 (1992); cited from earlier work.
A further series can be described thus: Solubility. Conditions: water.
Series [1] has as its system AZ521 human stomach cancer. Description: In vitro anti-tumor activity against AZ-521 human stomach cancer (MTT). The series is classed as cell-based. The conditions noted are these: AZ-521, 72 h, MTT, read-out: IC50. The procedure, abridged: (§1)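 Seed 500–2,000 cancer cells per well and culture 20 hours at 37° C in 5% CO2. Add compound at set concentrations and incubate 72 hours. Add MTT for 4 hours, remove supernatant, dissolve formazan in DMSO.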

For a further series, the system named is HMV2 human melanoma. Description: In vitro anti-tumor activity against HMV-2 human melanoma (MTT). The series is classed as cell-based. The conditions noted are these: HMV-2, 72 h, MTT, read-out: IC50. The procedure, abridged:
as §1

For series [2], the system named is colon 26 murine tumor cells. The experiment in a line: Tumor growth inhibition effect on colon 26 murine tumor cells implanted mice. The series is classed as in vivo, SLC: CDF1 mice. The conditions noted are these: Mus musculus, Colon 26, 504 h; ip, 3.13 mg/kg once a day, days 1-9; day 21 or 22; read-out: Tumor growth inhibition rate IR (%). The procedure, abridged:
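CDF1 female mice (7–9 weeks, 7 per group) implanted intracutaneously in the abdomen with 2% brei of colon 26 cells. Compound given ip once daily from day 1 to day 9. Tumor weight estimated from diameters on day 21 or 22; IR % = [1 − (treated MTW/control MTW)] × 100.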

For series [3], the system named is murine P388 lymphocytic leukemia cells. The experiment in a line: In vitro anti-tumor activity against murine P388 lymphocytic leukemia cells (MTT, 72 h). The series is classed as cell-based. Conditions: Mus musculus; murine P388 cells, 72 h, MTT; read-out: IC50 (50% proliferation inhibitory concentration). In outline: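 MTT assay, 72 h exposure; formazan dissolved in DMSO after centrifugation and supernatant removal. Absorbance read at 570 nm with 690 nm reference. IC50 (μg/ml) by least squares.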

For series [4], the system named is KB human nasopharynx cancer. The experiment in a line: In vitro anti-tumor activity against KB human nasopharynx cancer (MTT). Conditions: KB, 72 h, MTT, read-out: IC50. The class given is cell-based. In outline: as §1
For series [5], the system named is WiDr human colorectal cancer. Description: In vitro anti-tumor activity against WiDr human colorectal cancer (MTT). The class given is cell-based. Conditions: 72 h, MTT, read-out: IC50. The procedure, abridged:
as §1

A further series deals with C33A human cervix cancer. The experiment in a line: In vitro anti-tumor activity against C-33A human cervix cancer (MTT). The class given is cell-based. Conditions: C-33A, 72 h, MTT, read-out: IC50. The procedure, abridged: as §1
The nature of another series: Acute toxicity. Conditions: mouse, in vivo, mice, 14th day. How it is done: Solutions of test compounds in predetermined concentrations were administered (0.1 ml/10 g body weight) to female BALB/c CrSlc mice (5 to 10 animals per one group, 10 weeks old) respectively, and, thus, LD50 values were calculated from the mortalities of the mice on the 14th day after the administration.

Series [6] has as its system MKN45 human stomach cancer. Description: In vitro anti-tumor activity against MKN45 human stomach cancer (MTT). The series is classed as cell-based. Conditions: MKN-45, MKN45, 72 h, MTT, read-out: IC50. In outline:
as §1

The next series deals with A427 human lung cancer. The experiment in a line: In vitro anti-tumor activity against A-427 human lung cancer (MTT). The series is classed as cell-based. The conditions noted are these: A-427, 72 h, MTT, read-out: IC50. In outline: as §1
Series [7] relates to murine P388 lymphocytic leukemia cells. Description: Increases in life span of mice implanted with murine P388 lymphocytic leukemia cells. Conditions: Mus musculus, P388, ip, 720 h, ip. The class given is in vivo, SLC: BDF1 mice.
[8] abbreviates: NCI criterion, read-out: Evaluation.
Where [9] appears, read: days 1 and 5, in solution, read-out: ILS (%) (in solution).
The mark [10] stands for this setting: days 1 and 5, in suspension, read-out: ILS (%) (in suspension).

Regarding `NCC1CCN(c2c(F)cc3c(=O)c(C(=O)O)cn(C4CC4)c3c2F)C1` (stereo not shown) [Compound G], the “anti-tumor activity, in words” value in the series with tumor is “has anti-tumor activity”.
Broadly, the solubility is the dissolved amount per volume that the medium holds. As usually defined, the LD50 is the dose expected to kill half of the subjects tested. In “Solubility”, `Cl.NC1CCN(c2ccc3c(=O)c(C(=O)O)cn(-c4nccs4)c3n2)C1` (stereo not shown) [Compound 3, 7-(3-amino-1-pyrrolidinyl)-1,4-dihydro-4-oxo-1-(2-thiazolyl)-1,8-naphthyridine-3-carboxylic acid hydrochloride] gave a solubility of 8300 µg/mL. Also, the IC50 was determined as 0.181 µg/mL in [1]; 0.21 µg/mL with HMV2 human melanoma; 0.0103 µg/mL in series [3]; 0.153 µg/mL in series [4]; 1.08 µg/mL in series [5]; 0.184 µg/mL in the series on C33A human cervix cancer. The IC50 in series [6] stood at 0.364 µg/mL; in the series on A427 human lung cancer it was 0.0588 µg/mL. For the same compound, the inhibition in vivo at 3.13 mg/kg in series [2] turned out to be 77%. Besides, the median lethal dose (LD50) at 336 h in the series “Acute toxicity” (Intraperitoneal administration (ip)) was 55.2 mg/kg; in “Acute toxicity” (Intravenous administration (iv)), 119 mg/kg. Besides, the ILS at 1.56 mg/kg in series [7] (setting [8]) is 20 to 74%; in [7] (setting [9]) it was 63%. Moreover, the ILS at 3.13 mg/kg was more than 75% in [7] (setting [8]), 75% in series [7] (setting [9]) and 88% in series [7] (setting [10]). For the same compound, the values for the ILS at 6.25 mg/kg in series [7] (setting [8]) and in series [7] (setting [9]) were more than 75% and 113%, respectively. Also, the ILS at 12.5 mg/kg is more than 75% in series [7] (setting [8]), 188% in [7] (setting [9]) and 175% in [7] (setting [10]). The ILS at 25 mg/kg in series [7] (setting [8]) was more than 75%; in series [7] (setting [9]), more than 275%.
